The results in this text go back to article PMC7175277, “Hydroxylamine Analogue of Agmatine: Magic Bullet for Arginine Decarboxylase” (Biomolecules, 2020).

One assay addresses T1, E. coli ADC (Escherichia coli, UniProt P21170).
T1 construct: The kinetic parameters determined for the partially purified biosynthetic ADC from E. coli; endogenous in cells; host or cells: E. coli DH5α (39-53% ammonium sulphate fraction of the lysate, desalted)
T1 sequence (P21170 1-658): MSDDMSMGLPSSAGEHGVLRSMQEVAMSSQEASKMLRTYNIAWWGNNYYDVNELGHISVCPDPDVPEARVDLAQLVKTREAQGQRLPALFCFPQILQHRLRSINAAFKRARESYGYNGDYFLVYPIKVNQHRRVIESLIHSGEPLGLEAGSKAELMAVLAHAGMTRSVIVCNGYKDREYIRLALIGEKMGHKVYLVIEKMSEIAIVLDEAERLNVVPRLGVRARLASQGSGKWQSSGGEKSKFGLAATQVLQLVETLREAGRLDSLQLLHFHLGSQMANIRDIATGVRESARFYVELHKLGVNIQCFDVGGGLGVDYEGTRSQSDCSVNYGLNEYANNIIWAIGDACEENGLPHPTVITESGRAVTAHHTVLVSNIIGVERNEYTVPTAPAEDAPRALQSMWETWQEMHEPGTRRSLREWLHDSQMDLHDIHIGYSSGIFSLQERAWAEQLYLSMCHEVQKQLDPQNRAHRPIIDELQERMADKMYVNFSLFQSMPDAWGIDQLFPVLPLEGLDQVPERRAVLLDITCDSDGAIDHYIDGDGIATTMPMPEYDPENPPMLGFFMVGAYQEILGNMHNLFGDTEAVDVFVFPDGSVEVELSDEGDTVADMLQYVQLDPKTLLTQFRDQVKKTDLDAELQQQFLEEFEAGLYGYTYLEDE
Description: Ultrafiltration of ADC~PLP=AO-Agm complex, then ADC activity assay. The following applies: 15 μM AO-Agm. It is filed as biochemical. As for the experimental part:
Partially purified enzyme preparation was preincubated for 15 min with 15 μM AO-Agm (which produced 100% inhibition) or H2O (control) and 0.1 mM PLP in the assay buffer. The samples were placed on ice, and half of the reactions were filtered through a 3K cutoff ultrafiltration device (Millipore) and washed twice with 600 μL of buffer containing 50 mM Tris-HCl pH 7.4, 1 mM DTT and 0.1 mM PLP. ADC activity was then assayed.

For assay [1], the system named is DU145 prostate cancer cells. Description: Intracellular polyamine pools of DU145 cells. It is filed as cell-based. The settings on record: 3 days. As for the experimental part:
DU145 prostate cancer cells were cultured in high-glucose Dulbecco’s Modified Eagle’s Medium supplemented with 10% heat-inactivated fetal bovine serum, 2 mM L-glutamine and 50 μg/mL gentamycin (all from Sigma-Aldrich). The cells were plated on 6-well plates and allowed to attach overnight. […] The cells were harvested, and the pellet was mixed with 150 μL of 5% sulphosalicylic acid containing 5 μM diaminoheptane (internal standard). Polyamine analysis was carried out as described previously.

In assay [2] the test system is Acremonium chrysogenum high-cephalosporin-yielding (HY) RNCM F-4081D. Put plainly: Fungal growth inhibition (drop-dilution, CD agar), HY strain. In kind it is cell-based. The following applies: Hapsidospora chrysogena, 336 h, read-out: Growth inhibition. The text has this: Two strains of Acremonium chrysogenum were used in this study: the wild-type (Brotzu) isolate ATCC 11550 (WT) and high-cephalosporin-yielding RNCM F-4081D (HY), derived from the WT [37]. The cultivation conditions were the same as previously described. The filamentous fungi were cultivated on agarized Czapek-Dox (CD) medium (30 g/L sucrose, 2 g/L NaNO3, 1 g/L K2HPO4, 0.5 g/L MgSO4×7 H2O, 0.5 g/L KCl, 0.01 g/L FeSO4×7 H2O, 20 g/L agar, pH 7.0–7.4). To determine the toxic effect of AO-Agm, APA, DFMA and DFMO on the growth of fungal cells the drop-dilution method was used with some modifications as described earlier. Cells were collected from agar slants and diluted with 0.9% NaCl solution up to OD600 = 0.5 (basic concentration), followed by serial tenfold dilutions with the same solution. […] The inoculated Petri dishes were incubated for 21 days at 26 °C. The inhibitory effects of the compounds were measured every three days after inoculation and evaluated by measuring the ratio of colony growth on agarized CD medium supplemented with AO-Agm, APA, DFMA, or DFMO to the growth in the control (agarized CD medium without any additions). The formula: growth inhibition % = [(Dc − Dt)/Dc] × 100, where Dc indicates the colony diameter in control set, and Dt indicates the colony diameter in the treatment set that was used to determine the percent of fungal growth inhibition. The data recorded were measured in triplicate and repeated at least twice.

Setting [3] is: AO-Agm 10 μM in the presence of SC (1 mM).
Where [4] appears, read: AO-Agm 100 μM in the presence of SC (1 mM).
The mark [5] stands for this setting: AO-Agm 1 mM in the presence of SC (1 mM).

By inhibition is commonly meant how much of the control response was suppressed. Compound `N=C(N)NCCCON` [AO-Agm, 1-aminooxy-3-guanidinopropane] had an inhibition at 15 µM against E. coli ADC (15 min preincubation, 0.1 mM PLP) of 100%. Besides, the “ADC activity after ultrafiltration and washing of the inhibitory complex” value on E. coli ADC (buffer containing 0.1 mM PLP) is on record as “fully restored ADC activity”. Besides, the Put in assay [1] (setting [3]) amounted to 922 ± 60 pmol/mg Protein; in assay [1] (AO-Agm 10 μM, no SC), 1515 ± 98 pmol/mg Protein; in assay [1] (setting [4]), 954 ± 115 pmol/mg Protein; in assay [1] (AO-Agm 100 μM, no SC), 1447 ± 43 pmol/mg Protein; in assay [1] (AO-Agm 1 mM, no SC), 1074 ± 30 pmol/mg Protein. In addition, the Spd in assay [1] (setting [3]) turned out to be 6405 ± 61 pmol/mg Protein; in assay [1] (AO-Agm 10 μM, no SC), 7237 ± 73 pmol/mg Protein; in assay [1] (setting [4]) it was 6280 ± 122 pmol/mg Protein; in assay [1] (AO-Agm 100 μM, no SC) it was 7047 ± 155 pmol/mg Protein; in assay [1] (setting [5]) it was 1074 ± 159 pmol/mg Protein; in assay [1] (AO-Agm 1 mM, no SC), 3609 ± 124 pmol/mg Protein. Moreover, the Spm in assay [1] (setting [3]) is 3903 ± 72 pmol/mg Protein; in assay [1] (AO-Agm 10 μM, no SC), 3782 ± 55 pmol/mg Protein; in assay [1] (setting [4]) it was 3621 ± 87 pmol/mg Protein; in assay [1] (AO-Agm 100 μM, no SC), 3682 ± 152 pmol/mg Protein; in assay [1] (setting [5]), 2389 ± 105 pmol/mg Protein; in assay [1] (AO-Agm 1 mM, no SC), 3795 ± 98 pmol/mg Protein. Besides, in assay [2], the inhibition at 5000 µM amounted to 49%.
